According to patent publication US20100144860A1, “Transglutaminase Inhibitor Comprising EGCG And A Method For Producing Thereof” (priority 2007, published 2010):

Biological target: T1, Transglutaminase 2 (Cavia cutleri, UniProt P08587)
T1 construct: purchased Sigma-Aldrich T5398
T1 sequence (P08587 1-690): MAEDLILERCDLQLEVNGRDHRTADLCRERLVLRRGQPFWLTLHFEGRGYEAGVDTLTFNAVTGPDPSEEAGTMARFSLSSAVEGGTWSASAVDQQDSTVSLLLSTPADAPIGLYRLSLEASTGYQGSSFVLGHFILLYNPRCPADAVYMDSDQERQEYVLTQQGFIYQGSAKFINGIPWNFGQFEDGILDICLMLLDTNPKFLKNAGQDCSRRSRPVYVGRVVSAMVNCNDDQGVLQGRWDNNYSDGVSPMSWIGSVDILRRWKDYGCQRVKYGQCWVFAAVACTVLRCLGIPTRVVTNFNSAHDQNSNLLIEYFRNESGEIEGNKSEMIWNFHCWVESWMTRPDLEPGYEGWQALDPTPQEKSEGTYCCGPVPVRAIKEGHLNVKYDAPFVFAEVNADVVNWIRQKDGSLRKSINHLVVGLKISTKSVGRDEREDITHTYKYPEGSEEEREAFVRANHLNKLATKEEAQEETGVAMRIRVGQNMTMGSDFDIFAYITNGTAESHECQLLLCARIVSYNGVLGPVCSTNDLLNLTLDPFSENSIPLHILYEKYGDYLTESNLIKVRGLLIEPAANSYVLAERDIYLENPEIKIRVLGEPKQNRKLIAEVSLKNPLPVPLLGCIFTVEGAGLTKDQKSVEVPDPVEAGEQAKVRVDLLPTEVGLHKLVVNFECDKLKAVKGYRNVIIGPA
Experiment: In vitro assay for inhibition of transglutaminase activity ([1,4-14C] putrescine incorporation into succinylated casein)
Format: biochemical
Details: for activity of transglutaminase, Mean: mean of three assays, relative to DMSO control; for activity of transglutaminase, Assay 1 / activity of transglutaminase, Assay 2 / activity of transglutaminase, Assay 3: radioactivity compensated by DMSO-control group (=1.0000)
Description: To measure the inhibitory activity of EGCG which competes with putrescine, the transglutaminase-catalyzed reaction between [1,4,-^14C] putrescine and succinylated casein were observed.
Succinylated casein was purchased from Calbiochem (Cat. No. 573464), and 1 g of the powder was dissolved in 50 ml of a reaction buffer solution containing 5 mM DTT (0.1 M Tris-acetate (pH 8.0), 10 mM CaCl2, 0.15 M NaCl, 1.0 mM EDTA). This solution was stored in a deep freezer for further use. [1,4-^14C] Putrescine dihydrochloride was purchased from GE Healthcare (Cat. No. CFA301), and the stock solution was diluted with distilled water to yield a radiological dose of 5 μCi/ml. Transglutaminase 2 was purchased from Sigma-Aldrich (Cat. No. T5398), and diluted with distilled water to yield a final concentration of 1 unit/ml. EGCG (Sigma-Aldrich, Cat. No. E4143) was dissolved in DMSO at a concentration of 10 mM to prepare its stock solution, and the stock solution was diluted with DMSO to prepare solutions having various concentrations.
450 μl of succinylated casein solution and 50 μl of [1,4-^14C] putrescine dihydrochloride solution were mixed together to prepare a substrate solution. 96 μl of the reaction buffer, 3 μl of the stock solution of EGCG, and 1 μl of the stock solution of transglutaminase were mixed together to prepare each sample, followed by incubation at 37° C. for 10 min. 500 μl of the substrate solution and 100 μl of sample solution were mixed well, and the mixture was incubated at 37° C. for 2 hrs, before termination with 4.5 ml of cold (4° C.) 7.5% TCA. The final solution was stored at 4° C. for 1 hr. The TCA-precipitates were filtered through a GF/glass fiber filter, washed with 25 ml of cold 5% TCA, and dried. Radioactivity of crosslinked protein was measured using a (β-counter (Beckman Coulter), and compensated by the activity of DMSO-control group as a standard. The activity of transglutaminase was represented by the measured values. The assay was repeated three times under the same conditions, and the results are shown in the following Table 1.

For `O=C(O[C@@H]1Cc2c(O)cc(O)cc2O[C@@H]1c1cc(O)c(O)c(O)c1)c1cc(O)c(O)c(O)c1` [EGCG, [2R, 3R]-2[3,4,5-trihydroxyphenyl]-3,4-dihydro-1[2H]-benzopyran-3,5,7-triol-3-[3,4,5-trihydroxybenzonate]], the “activity of transglutaminase, Mean” value (EGCG 0.5 μM) was 0.5383, the “activity of transglutaminase, Assay 1” value (EGCG 0.5 μM) was 0.5166 and the “activity of transglutaminase, Assay 2” value (EGCG 0.5 μM) was 0.5690. The “activity of transglutaminase, Assay 3” value (EGCG 0.5 μM) was 0.5295, the “activity of transglutaminase, Mean” value (EGCG 1.0 μM) was 0.3677 and the “activity of transglutaminase, Assay 1” value (EGCG 1.0 μM) was 0.3950. The “activity of transglutaminase, Assay 2” value (EGCG 1.0 μM) was 0.3873, the “activity of transglutaminase, Assay 3” value (EGCG 1.0 μM) was 0.3207 and the “activity of transglutaminase, Mean” value (EGCG 2.0 μM) was 0.2001. The “activity of transglutaminase, Assay 1” value (EGCG 2.0 μM) was 0.2009, the “activity of transglutaminase, Assay 2” value (EGCG 2.0 μM) was 0.2288 and the “activity of transglutaminase, Assay 3” value (EGCG 2.0 μM) was 0.1707. The “activity of transglutaminase, Mean” value (EGCG 3.0 μM) was 0.1765, the “activity of transglutaminase, Assay 1” value (EGCG 3.0 μM) was 0.1911 and the “activity of transglutaminase, Assay 2” value (EGCG 3.0 μM) was 0.1902. The “activity of transglutaminase, Assay 3” value (EGCG 3.0 μM) was 0.1482, the “activity of transglutaminase, Mean” value (EGCG 5.0 μM) was 0.1064 and the “activity of transglutaminase, Assay 1” value (EGCG 5.0 μM) was 0.1246. For the same molecule, the “activity of transglutaminase, Assay 2” value (EGCG 5.0 μM) was 0.0947, the “activity of transglutaminase, Assay 3” value (EGCG 5.0 μM) was 0.1000 and the “activity of transglutaminase, Mean” value (EGCG 10.0 μM) was 0.0879. For the same molecule, the “activity of transglutaminase, Assay 1” value (EGCG 10.0 μM) was 0.1029, the “activity of transglutaminase, Assay 2” value (EGCG 10.0 μM) was 0.0726 and the “activity of transglutaminase, Assay 3” value (EGCG 10.0 μM) was 0.0881. For the same molecule, the “activity of transglutaminase, Mean” value (EGCG 50.0 μM) was 0.0871, the “activity of transglutaminase, Assay 1” value (EGCG 50.0 μM) was 0.0861 and the “activity of transglutaminase, Assay 2” value (EGCG 50.0 μM) was 0.0903. The “activity of transglutaminase, Assay 3” value (EGCG 50.0 μM) was 0.0849, the “inhibition of the activity of transglutaminase (in words)” value (FIG. 1, relative inhibition activities) was “inhibited in an EGCG concentration-dependent manner” and the IC50 (calculated by nonlinear regression from mean values) was 517 nM.
